For assay [1], the target named is T1, 5-hydroxytryptamine receptor 1A (Homo sapiens, UniProt P08908).
T1 sequence (P08908 whole entry): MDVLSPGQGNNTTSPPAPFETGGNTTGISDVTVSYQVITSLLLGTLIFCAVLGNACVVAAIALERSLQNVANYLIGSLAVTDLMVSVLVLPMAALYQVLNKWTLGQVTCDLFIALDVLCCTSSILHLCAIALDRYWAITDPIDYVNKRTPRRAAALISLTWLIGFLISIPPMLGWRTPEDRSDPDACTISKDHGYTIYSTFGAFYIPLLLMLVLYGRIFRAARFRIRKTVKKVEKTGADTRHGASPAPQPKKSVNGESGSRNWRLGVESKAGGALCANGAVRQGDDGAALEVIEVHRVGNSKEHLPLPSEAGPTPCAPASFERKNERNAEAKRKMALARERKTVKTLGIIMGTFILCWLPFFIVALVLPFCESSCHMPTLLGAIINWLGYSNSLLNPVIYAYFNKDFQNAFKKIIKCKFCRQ
Nature of the assay: Antagonist activity at 5-HT1A receptor (unknown origin).

Assay [2] concerns the target T2, 5-hydroxytryptamine receptor 7 (Homo sapiens, UniProt P34969). Nature of the assay: Antagonist activity at 5-HT7 receptor (unknown origin).
The target of assay [3] is T2, 5-hydroxytryptamine receptor 7. Briefly: biochemical. In kind it is cell-based.
The target of assay [4] is 5-hydroxytryptamine receptor 7 (Rattus norvegicus, UniProt P32305). Nature of the assay: Displacement of [3H]5-CT from recombinant rat 5-HT7 receptor expressed in HEK293 cells. It counts as cell-based. Background: Loss of bound radioactivity is the signal in a displacement assay; it reports binding, not function.
Sequence of 5-hydroxytryptamine receptor 7 (Rattus norvegicus, UniProt P32305) (P32305 whole entry): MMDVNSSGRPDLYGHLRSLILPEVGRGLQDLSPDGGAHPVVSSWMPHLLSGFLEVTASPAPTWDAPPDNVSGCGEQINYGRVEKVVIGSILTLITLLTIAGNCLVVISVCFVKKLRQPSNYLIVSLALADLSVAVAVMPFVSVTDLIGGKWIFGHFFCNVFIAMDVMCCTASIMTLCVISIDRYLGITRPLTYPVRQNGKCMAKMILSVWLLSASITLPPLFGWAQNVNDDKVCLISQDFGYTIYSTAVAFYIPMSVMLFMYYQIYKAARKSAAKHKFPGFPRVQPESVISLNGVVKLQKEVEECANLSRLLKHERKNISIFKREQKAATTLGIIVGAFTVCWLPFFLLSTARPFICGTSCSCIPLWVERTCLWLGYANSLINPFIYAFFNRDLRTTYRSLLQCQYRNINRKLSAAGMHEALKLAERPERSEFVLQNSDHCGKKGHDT

T2 sequence (P34969 whole entry): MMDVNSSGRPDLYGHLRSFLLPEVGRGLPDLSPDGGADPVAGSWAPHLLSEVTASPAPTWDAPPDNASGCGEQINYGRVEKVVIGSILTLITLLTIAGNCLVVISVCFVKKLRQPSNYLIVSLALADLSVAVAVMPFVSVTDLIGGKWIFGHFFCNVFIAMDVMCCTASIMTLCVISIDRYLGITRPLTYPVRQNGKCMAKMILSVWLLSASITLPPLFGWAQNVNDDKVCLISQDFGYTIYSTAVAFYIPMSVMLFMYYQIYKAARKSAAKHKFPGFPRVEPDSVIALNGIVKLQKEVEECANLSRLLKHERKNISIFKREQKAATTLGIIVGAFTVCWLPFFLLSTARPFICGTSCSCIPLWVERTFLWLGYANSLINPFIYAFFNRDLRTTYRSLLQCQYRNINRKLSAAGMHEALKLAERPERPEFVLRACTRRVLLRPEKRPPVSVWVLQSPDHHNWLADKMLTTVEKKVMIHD

By Ki is commonly meant the equilibrium dissociation constant of an inhibitor or competing ligand from its target. For `CC(Nc1nc(N)nc(NCCOc2ccc(F)cc2)n1)c1ccc(F)cc1` (stereo not drawn), the Ki in assay [1] is more than 100 nM.
For `CC(Nc1nc(N)nc(NCCOc2ccccc2)n1)c1ccccc1` (stereo not drawn), the Ki in assay [2] is 3 nM; in assay [1], more than 100 nM.
For `COc1cccc(OC)c1-c1cccc(CCN(C)C)c1`, the affinity in assay [1], expressed as Ki, was 4830 nM.
`CCN(CC)C(=O)[C@@H]1C=C2c3cccc4[nH]c(Br)c(c34)C[C@H]2N(C)C1` had a Ki in assay [3] of 31.6 nM.
Turning to `COc1ccccc1N1CCN(Cc2cn(-c3cccc4ccccc34)c3ccccc23)CC1`, the affinity in assay [1] corresponds to a Ki of 700 nM.
Consider `O=C1Cc2ccccc2N1CC/C=C/CCN1CCc2ccccc2C1`, for which the Ki in assay [1] was more than 1000 nM.
Still for that read-out and setting: with `CCC1(CCCCN2CCN(c3ccc(Cl)cc3)CC2)C(=O)Nc2cc(F)ccc21` (stereo not drawn) the figure was 1610 nM; with `Cc1nn(C)c(C)c1-c1ccc(O)c(CCN(C)C)c1`, more than 10000 nM; with `COc1ccc(S(=O)(=O)NCCCN2CCN(c3ccccc3OC)CC2)cc1`, 272 nM.
For the compound `O=S(=O)(c1ccc2cc[nH]c2c1)N1CCC[C@H]1CCN1CCC(Oc2ccc(Cl)cc2)CC1`, the Ki is 1.99 nM in assay [2] and 562 nM in assay [1].
Taken in the same sequence, the figures for `CNC(=O)Cn1c2c(c3ccccc31)CN(CCCCC13CCCc4cccc(c41)NC3=O)CC2` (stereo not drawn) were 3.54 nM and 128 nM.
The term IC50 denotes the concentration needed to halve the response being measured. A high value points to a need for much substance. In assay [1], `CCOc1ccccc1N1CCN(CCCCC(=O)NCc2nc3cc(F)ccc3c(=O)n2-c2ccccc2)CC1` yielded an IC50 of 500 nM. In other words, the sub-micromolar range.
For the compound `Clc1ccc(-c2nn(Cc3ccccc3)c3c2CCNCC3)cc1` [JNJ-18038683 FREE BASE], the Ki in assay [4] worked out at 316 nM; in assay [1], 6.5 nM.
`Cc1cccc(S(=O)(=O)N(C)[C@H](C)CCN2CCC(C)CC2)c1` [SB-258719] yielded a Ki in assay [1] of more than 3000 nM.

The values above are taken from ChEMBL document CHEMBL4342419 (Eur J Med Chem, 2019).
